Read-outs that look alike come from different tables or passages of the source. Blank lines part the entries; values can stand above or below the molecule they belong to.
Key:
hA1AR = biological target: T1, hA1AR (Homo sapiens, UniProt P30542); experiment: Competitive binding assay, hA1AR membranes, [3H]DPCPX; conditions: for Ki: read-out: Ki hA1AR, [3H]DPCPX […], DMSO up to 10%, n = 3–5 in triplicate
T1 sequence (P30542 1-326): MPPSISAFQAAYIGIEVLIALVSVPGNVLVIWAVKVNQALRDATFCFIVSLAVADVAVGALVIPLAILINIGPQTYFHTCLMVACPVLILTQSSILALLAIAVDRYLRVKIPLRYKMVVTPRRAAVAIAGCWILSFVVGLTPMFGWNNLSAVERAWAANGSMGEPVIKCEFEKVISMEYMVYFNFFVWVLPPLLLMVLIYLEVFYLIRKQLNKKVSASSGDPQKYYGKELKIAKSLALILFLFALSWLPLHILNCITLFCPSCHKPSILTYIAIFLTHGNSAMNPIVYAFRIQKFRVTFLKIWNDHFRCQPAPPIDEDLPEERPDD
Protocol: (§2) The assay was performed according to the manufacturer's instructions in a final volume of 500 μL. Increasing concentrations of test compounds were added, whereby the concentration of dimethyl sulfoxide (DMSO) in final assay volume remained ≤10% (hA1AR and hA2AAR assay) and ≤1% in the hA3AR assay. Nonspecific binding was determined using 1 μM DPCPX (hA1R assay), 1 μM SCH-442,416 (hA2AR assay), or 10 μM I-AB-MECA (hA3AR assay). Filtration through GF/B filters (Whatman®, presoaked in 0.1% PEI or 0.5% BSA) was performed using a cell harvester (Brandel®), and receptor-bound radioactivity was determined via gamma counting (2480 Wizard^2, PerkinElmer) or liquid scintillation counting (Hidex 300 SL). IC50 fitted binding curves were generated using the GraphPad Software 5.0, and Ki values were calculated using the Cheng-Prusoff equation.

hA2AAR = hA2AAR (Homo sapiens, UniProt P29274); experiment: Competitive binding assay, hA2AAR membranes, [3H]CGS21680; conditions: read-out: Ki hA2AAR; [3H]CGS21680 50 nM; DMSO up to 10%; n = 3–5 in triplicate
hA2AAR, sequence (P29274 whole entry): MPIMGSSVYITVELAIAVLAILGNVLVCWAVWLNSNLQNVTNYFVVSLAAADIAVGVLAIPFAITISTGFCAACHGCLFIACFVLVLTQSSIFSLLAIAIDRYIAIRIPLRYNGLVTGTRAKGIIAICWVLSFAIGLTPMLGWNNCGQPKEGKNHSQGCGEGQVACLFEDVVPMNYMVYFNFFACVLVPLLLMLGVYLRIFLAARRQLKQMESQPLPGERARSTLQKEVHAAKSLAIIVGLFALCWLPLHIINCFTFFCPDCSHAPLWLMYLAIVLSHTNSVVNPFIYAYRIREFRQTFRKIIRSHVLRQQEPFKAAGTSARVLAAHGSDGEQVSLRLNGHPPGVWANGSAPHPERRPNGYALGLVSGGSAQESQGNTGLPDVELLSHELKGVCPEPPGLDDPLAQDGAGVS
Protocol: as §2

hA3AR = biological target: T2, hA3AR (Homo sapiens, UniProt P0DMS8); experiment: Competitive binding assay, hA3AR membranes, [125I]AB-MECA; conditions: read-out: Ki hA3AR, [125I]AB-MECA 0.4 nM, DMSO ≤1%
T2 sequence (P0DMS8 1-318): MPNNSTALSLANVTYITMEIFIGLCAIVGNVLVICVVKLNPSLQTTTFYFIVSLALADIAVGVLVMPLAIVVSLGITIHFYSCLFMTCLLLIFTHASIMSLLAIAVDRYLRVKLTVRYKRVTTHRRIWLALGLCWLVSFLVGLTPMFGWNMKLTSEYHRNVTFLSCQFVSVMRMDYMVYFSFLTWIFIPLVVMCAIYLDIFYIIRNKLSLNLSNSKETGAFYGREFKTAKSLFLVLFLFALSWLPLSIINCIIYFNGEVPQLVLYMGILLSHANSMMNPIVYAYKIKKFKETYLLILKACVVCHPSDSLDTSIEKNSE
Protocol: as §2

HT-29 cells [1] = tested on: HT-29 cells; parameters: method as in PMID 23454010; conditions: 1 µM, A3AR-dependent; cited from earlier work
HCT-116 cells = tested on: HCT-116 cells; parameters: method as in PMID 23454010; conditions: A3AR dependent; cited from earlier work
[2] = tested on: colorectal carcinoma tissue slices; experiment: Autoradiography of human colorectal carcinoma versus healthy colon tissue slices; assay type: binding; conditions: in 5 of 7 regions, two CRC patients, P < 0.05
Protocol: Colorectal carcinoma tissue and adjacent healthy colon tissue were obtained directly after tumorectomy from two patients after full informed consent and quick-frozen in 2-methylbutane (−40°C). Tissue was sliced into 16 μm slices using a microcryotome (Thermo Scientific Microm HM 560) and stored at −80°C until usage. Depending on the sample size, 3 to 4 different regions were defined and analyzed by means of autoradiography and immunohistochemistry.
Tissue slices were thawed and reconstituted in assay buffer (50 mM Tris-HCl pH 7.4, 100 mM NaCl, 1 mM EDTA, 1% BSA, 1 unit adenosine deaminase/100 mL) for 30 min at RT. Radiosynthesis of [^18F]FE@SUPPY was performed as previously described and the product was physiologically formulated (EtOH/0.9% saline 10/90). Tissue slices were incubated with 50 kBq [^18F]FE@SUPPY (40–200 GBq/μmol) in 100 μL assay buffer for 1 h at RT. Slices were thoroughly washed with ice-cold wash buffer (50 mM Tris-HCl pH 7.4), dried, and exposed to a phosphor screen overnight. The readout of the phosphor storage screen was performed on a Cyclone Phosphor Imager (Perkin Elmer), and data analysis was performed using OptiQuant® Software as previously described. […] Differences among groups (colorectal cancer versus healthy colon) were analyzed using a two-tailed, unpaired Student's t-test with Welch's correction.

[3] = In vitro stability in mouse plasma; assay type: in vitro ADME; conditions: 120 min incubation at 37°C
Protocol: (§1) Stability of [^18F]FE@SUPPY was tested against mouse liver microsomes, mouse S9 fraction, and mouse plasma (BD Sciences). Amount of intact tracer (%) was determined after 5, 10, 20, 40, 60, and 120 min using an Agilent series 1100/1200 HPLC system connected to a radioactivity detector (Raytest, Ramona Star) (n = 2 in triplicate). The assay was conducted as previously described for respective rat and human enzymes.

[4] = In vitro stability against mouse S9 fraction; assay type: in vitro ADME; conditions: mouse liver homogenates (S9 fraction), 120 min
Protocol: as §1

[5] = In vitro stability against mouse liver microsomes; assay type: in vitro ADME; conditions: purified mouse liver microsomes, 120 min
Protocol: as §1

[6] = Ex vivo blood stability in BALB/c mice; conditions: 70 min after retroorbital injection
Protocol: Radiosynthesis was performed as described elsewhere and the product was processed as follows: ethanol was totally evaporated and the dry product was again physiologically formulated in 1.5–2 mL Tween-20/EtOH/0.9% saline 1/9/90 to obtain activity concentrations of approximately 1 GBq/mL. Healthy BALB/c mice were injected with 18 ± 2 MBq (molar activity = 70–200 GBq/μmol) retroorbitally and sacrificed after 5, 10, 20, 40, and 70 min (n = 3 for each time point). Blood samples were collected and immediately precipitated using acetonitrile/methanol (10 : 1) and centrifuged (12,000 rpm, 5 min, 4°C). The obtained supernatants were subjected to radio-HPLC as previously described.

[7] = Ex vivo biodistribution in BALB/c mice; conditions: 70 min after tracer application, n = 3
Protocol: Ex vivo biodistribution of [^18F]FE@SUPPY was assessed 70 min after tracer application in BALB/c mice. Radioactivity was determined using a gamma counter (2480 Wizard^2, PerkinElmer), organs were wet-weighted, and percentage of injected dose per gram of organ was calculated (%ID/g).

HT-29 xenografts = experiment: µPET imaging of HT-29 / CHO-K1 xenograft-bearing CB17-SCID mice; assay type: in vivo; conditions: µPET 60 min, baseline
Protocol: After 10 to 14 days upon arrival, CB17-SCID mice were injected subcutaneously with 2 × 10^6 HT-29 cells into one flank and 2 × 10^6 CHO-K1 cells in the opposite flank (n = 9). Body weight and tumor development were monitored every second day by caliper measurement. The respective tumor volume was calculated according to the following equation: tumor volume (mm^3) = d^2 × D/2 (where d is the shortest diameter and D the longest diameter). Animals were subjected to μPET imaging 10 days after inoculation, when tumors reached a volume of at least 300 mm^3. Tumor volume never exceeded 1 cm^3.
Xenograft-bearing CB17-SCID mice were anesthetized using isoflurane (2.5%) mixed with oxygen (1.5 L/min) to avoid movement during the imaging. Blocking agents (2 mg/kg BW FE@SUPPY or MRS1523) or the respective vehicle control (Tween-20/EtOH/0.9% physiological saline 1/9/90) was administered retroorbitally 2 min prior to the radiotracer administration (n = 3 per group). Subsequently, the animals received another retroorbital injection of 17.42 ± 4.5 MBq [^18F]FE@SUPPY into the venous plexus of the opposite eye. With a minor delay after the application of the radiotracer (2-3 min), mice were placed into the field of view of the scanner (μPET/CT Inveon, Siemens Medical Solution, Knoxville, USA), and dynamic imaging was performed for 60 min to follow tracer distribution. Vital parameters (respiration, body temperature) were continuously monitored using a dedicated monitoring unit (bioVet; m2m imaging, Cleveland, OH, USA) to ensure the depth of anesthesia and wellbeing of the animals.

[8] = parameters: method as in PMID 25601336; conditions: rats, after 60 min; cited from earlier work
rat A3AR = tested on: rat A3AR; parameters: method as in PMID 25242859; conditions: cited from earlier work
HT-29 cells [9] = tested on: HT-29 cells; parameters: method as in PMID 17488804; conditions: hypoxic conditions, through A3AR stimulation; cited from earlier work

SMILES: CNC(=O)[C@H]1O[C@@H](n2cnc3c(NCc4cccc(I)c4)ncnc32)[C@H](O)[C@@H]1O [IB-MECA]
effect on cell growth (HT-29 cells [1]): growth promoting effect | effect on cells (HCT-116 cells): causes cell apoptosis

SMILES: Nc1ncnc2c1ncn2[C@@H]1O[C@H](CO)[C@@H](O)[C@H]1O [adenosine]
affinity for the A3AR (rat A3AR): ~ 1 µM

SMILES: Cn1c(=O)c2c(ncn2C)n(C)c1=O [caffeine]
effect on HIF-1 protein and VEGF expression (HT-29 cells [9]): leads to hypoxia-inducible factor-1 (HIF-1) protein accumulation and increased vascular endothelial growth factor (VEGF) expression

More lines, main results first:

hA1/hA3AR selectivity ratio (hA1AR; ratio of Ki values): 324 | Ki (hA1AR): 5.46 ± 0.4 µM | Ki (hA2AAR): 37.1 ± 16 µM | Ki (hA3AR; n = 3–5 in triplicate): 2.58 ± 1.2 µM
SMILES: CCSC(=O)c1c(CC)nc(-c2ccccc2)c(C(=O)O)c1CC [DFE@SUPPY]

Ki (hA1AR): 4.03 ± 1 µM | Ki (hA2AAR): 1.72 ± 0.4 µM | Ki (hA3AR; n = 3): 0.00602 ± 0.0004 µM
SMILES: CCSC(=O)c1c(CC)nc(-c2ccccc2)c(C(=O)OCCF)c1CC [FE@SUPPY]

higher binding in colorectal carcinoma versus healthy colon tissue of the same patient [2]: ≥ 2.3 fold | intact tracer [3]: 92.6 ± 0.7% | intact tracer [4]: 66.9 ± 6.7% | intact tracer [5]: 31.4 ± 7.8% | intact tracer in blood (ex vivo) [6]: 2.2 ± 0.4% | accumulation in bile fluid [7]: 162.78 ± 37.51 % ID/g | accumulation in brain [7]: 0.23 ± 0.03 % ID/g | accumulation in heart [7]: 1.13 ± 0.04 % ID/g | accumulation in kidneys [7]: 2.67 ± 0.24 % ID/g | accumulation in liver [7]: 14.57 ± 0.20 % ID/g | accumulation in lung [7]: 1.50 ± 0.23 % ID/g | accumulation in urine [7]: 43.33 ± 9.23 % ID/g | circulating radioactivity in blood [7]: 1.6 ± 0.1 % ID/g | SUV CHO-K1 xenograft tumor (hA3AR negative control) (HT-29 xenografts; CB17-SCID mice): 0.25 ± 0.33 | SUV HT-29 xenograft tumor (HT-29 xenografts; CB17-SCID mice): 0.23 ± 0.06 | SUV bile fluid (HT-29 xenografts; CB17-SCID mice): 21.85 ± 10.63 | SUV blood (HT-29 xenografts; CB17-SCID mice): 1.21 ± 0.11 | SUV urine (HT-29 xenografts; CB17-SCID mice): 8.86 ± 3.44 | SUV liver (HT-29 xenografts; xenograft-bearing CB17-SCID mice): 6.68 ± 0.80
SMILES: CCSC(=O)c1c(CC)nc(-c2ccccc2)c(C(=O)OCC[18F])c1CC [[^18F]FE@SUPPY, 5-(2-[18F]fluoroethyl) 2,4-diethyl-3-(ethylsulfanylcarbonyl)-6-phenylpyridine-5-carboxylate]
intact tracer in plasma [8]: 25.8 ± 5.3%

— article PMC5830979, “Preclinical In Vitro and In Vivo Evaluation of [^18F]FE@SUPPY for Cancer PET Imaging: Limitations of a Xenograft Model for Colorectal Cancer” (Contrast Media & Molecular Imaging, 2018)
